Test results from patent publication US12023329B2, “Methods for the treatment of diseases associated with activation of inflammasomes” (Chang Gung University, priority 2020, dated 2024).

How the values were obtained:
[1] = tested on: LPS/D-GalN-induced acute liver failure in mice; experiment: Animal model of LPS/D-GalN-induced acute liver failure; type: in vivo, mice (C57BL/6); details: for acute liver failure: liver bleeding and inflammation (gross liver morphology): rebastinib 5 or 10 mg/kg i.v. 1 hr before LPS (40 μg/kg)/D-GalN (400 mg/kg) i.p.
Procedure: (§1) C57BL/6 mice (7-10-week-old, each weighted about 20-25 g) were maintained in micro-isolator units on a standard laboratory diet. Animals were housed under humidity- and temperature-controlled conditions and the light/dark cycle was set at 12-hr intervals, maintained under specified and opportunistic pathogen-free conditions. All animal studies were conducted under protocol approved by the Animal Care and Use Committee of Chang Gung University (Taipei, Taiwan).
Mice were randomly divided into 4 groups. The test compound rebastinib (5 or 10 mg/Kg) or a control solvent (80% saline, 10% ethanol, 10% Tween-20) was injected through the tail vein of each mice. The mice were allowed to rest for 1 hr, then LPS ([…])/D-GalN (400 mg/Kg) was injected through abdominal space for 5 hr to induce acute liver failure. Blood samples and tissue samples were respectively collected. Blood samples were analyzed for their respective levels of LDH, AST, ALT, BUN, and CRE. The livers were fixed in 10% formalin for tissue section. The liver sections were stained with hematoxylin and eosin (H&E).
In this example, animal model of acute liver failure was used to investigate the effect of the present compound on acute liver failure. Briefly, animals were first subjected to LPS/D-GalN treatment (LPS: 40 […]) to create acute liver failure, then blood and tissue samples with or without treatment of the present compound were taken, which were then subjected to biochemistry and microscopy analysis.

LPS-primed d-THP-1 cells [2] = experiment: MSU-induced IL-1β secretion in LPS-primed d-THP-1 cells (ELISA); type: cell-based, Human; details: rebastinib 0.003-1 μM, 30 min pre-incubation, MSU 100 μg/ml 4 hr
Procedure: (§2) Human monocytic cell line THP-1 was purchased from American Type Culture Collection (ATCC) and maintained in RPMI-1640 Medium supplemented with 10% fetal bovine serum (FBS), 1% antibiotic-antimycotic solution, 0.1% (3-mercaptoethanol ((3-ME), and phenol red indicator in an incubator at 37° C. with 5% CO2. The medium was changed every 2-3 days.
(§3) To induce differentiation, THP-1 cells (cell density was about 5×10^5/mL) was cultivated in a serum-free medium containing 100 nM of phorbol 12-myristate 13-acetate (PMA) for about 4 hr. Then, the PMA-containing medium was replaced with a fresh RPMI-1640 medium, and the cultivation was continued for another 2 days to allow the THP-1 cells to differentiate into macrophage-like cells, hereafter termed “d-THP-1 cells.”
(§4) d-THP1 cells were first treated with 100 ng/mL of lipopolysaccharide (LPS) for 3 hr, then LPS-containing medium was replaced by a fresh medium. […]
(§5) The level of IL-1β and IL-18 was independently determined by ELISA assay kit (R&D system) in accordance with the manufacturer's protocol. The level of […] and IL-18 was determined from the 450 and 540 nm absorbance measured by Multiskan GO multiplate reader. […]

LPS-primed d-THP-1 cells [3] = experiment: Nigericin-induced pyroptotic cell death observed by field emission scanning electron microscopy; type: cell-based, Human; details: rebastinib 1 μM or glibenclamide 50 μM, 30 min, nigericin 5 μM 30 min, SEM images
Procedure: d-THP-1 cells (treated with LPS, the tested compounds, and the stimulant as described above or untreated) were fixed, in sequence, by use of 4% paraformaldehyde and 2.5% glutaraldehyde, respectively for 10 min, washed with PBS, then reacted with osmium tetroxide (OsO4) for 30 min; the cells were thoroughly washed with distilled water, then incubated with tannic acid for 30 min. […] Repeated the 100% ethanol dehydration step 3 times. The specimens were then dried with a mixture of CO2 and ethanol supercritical condition using Critical Point Dryer (CPD) (LEICAME CPD 300). The dried specimens were subsequently fixed on an alumina platform, and sputted with gold ions (ion sputter, JEOL JFC-1100E, operated at 1-2 mA for 60 sec) before subjecting to observation under Field Emission Scanning Electron Microscope (FE-SEM).
(§6) Pyroptosis is a form of programmed cell death. In this process, immune cells recognize foreign danger signals within themselves, release pro-inflammatory cytokines, swell, burst, and die. In this example, the effects of the present compound on nigericin-induced pyroptotic cell death and LDH release were investigated, in which the pyroptosis phenomena was observed using Field Emission Scanning Electron Microscope, and LDH level was determined by enzymatic assay.

LPS-primed d-THP-1 cells [4] = experiment: Imiquimod-induced IL-1β secretion in LPS-primed d-THP-1 cells (ELISA); type: cell-based, Human; details: rebastinib 0.003-1 μM, 30 min pre-incubation, IMQ 100 μM 2 hr
Procedure: as §2, §3, §4, §5

LPS-primed d-THP-1 cells [5] = experiment: Nigericin-induced ASC speck formation (fluorescent microscopy); type: cell-based, Human; details: rebastinib 1 μM or glibenclamide 50 μM, 30 min, nigericin 5 μM 30 min, anti-ASC staining
Procedure: d-THP-1 cells (treated with LPS, the tested compound, and the stimulant as described above or untreated) were fixed by 4% paraformaldehyde, washed with PBS (3 times), treated with Triton-X-100 (0.1%) for 10 min, washed with PBS (3 times), added 5% BSA for 1 hr, then washed with PBS (3 times) before the primary antibody (anti-ASC) was added. The primary anti-ASC antibody labeled cells were incubated at 4° C. overnight, then was labeled with the secondary antibody at RT for 1 hr, washed with PBS (3 times), added Hoechst 33342, washed with PBS (3 times), added ProLong™ Gold antifade reagent, then photographed using Fluorescent Microscope (IX81 Olympus, with Lumen 200 Fluorescence Illumination System). A hallmark of inflammasome activation is the ASC speck, a micrometre-sized structure formed by the inflammasome adaptor protein ASC (apoptosis-associated speck-like protein containing a CARD), which consists of a pyrin domain (PYD) and a caspase recruitment domain (CARD). In this example, the effect of the present compound on nigericin-induced formation of ASC speck in LPS-primed d-THP-1 cells was observed using fluorescence microscope, and results are illustrated in FIG. 8.

LPS-primed d-THP-1 cells [6] = experiment: Nigericin-induced IL-1β secretion in LPS-primed d-THP-1 cells (ELISA); type: cell-based, Human; details: rebastinib 0.01-1 μM, 30 min pre-incubation, nigericin 5 μM 30 min, IL-1β in supernatant by ELISA
Procedure: as §2, §3, §4, §5

LPS-induced ALI in mice = experiment: Animal model of LPS-induced acute lung injury (ALI); type: in vivo, mice (C57BL/6); details: rebastinib 10 mg/kg i.v. 1 hr before intra-tracheal LPS 2 mg/kg, lungs collected 5 hr later
Procedure: as §1
ALI was induced by intra-tracheal spray of 2 mg/kg LPS in 7-8 weeks old C57BL/6 mice. Mice were fasted overnight and then intravenously injected with 50 ul of rebastinib (10 mg/kg) or an equal volume of solvent (vehicle). After 1 hr, mice were instilled with an intra-tracheal spray of 2 mg/kg LPS (dissolved in 40 μl 0.9% saline) or 0.9% saline under anesthesia. 5 hr later, mice were sacrificed and the lungs were collected. The lungs were fixed in 10% formalin for tissue section. The lung sections were stained with hematoxylin and eosin (H&E).
In this example, animal model of ALI was used to investigate the effect of the present compound on ALI. Mice were intravenously injected with 50 ul of rebastinib (10 mg/kg) or an equal volume of solvent (vehicle). After 1 hr, mice were instilled with an intra-tracheal spray of 2 mg/kg LPS (dissolved in 40 μl 0.9% saline) or 0.9% saline under anesthesia. […]

LPS-primed d-THP-1 cells [7] = experiment: Nigericin-induced pyroptotic LDH release; type: cell-based, Human; details: rebastinib 0.01-1 μM, 30 min, nigericin 5 μM 30 min
Procedure: as §6

LPS-primed d-THP-1 cells [8] = experiment: Nigericin-induced IL-18 secretion in LPS-primed d-THP-1 cells (ELISA); type: cell-based, Human; details: rebastinib 0.01-1 μM, 30 min pre-incubation, nigericin 5 μM 30 min
Procedure: as §2, §3, §4, §5

[9] = rebastinib 5 or 10 mg/kg i.v., LPS/D-GalN i.p. 5 hr

4-[4-[(5-tert-butyl-2-quinolin-6-ylpyrazol-3-yl)-carbamoylamino]-3-fluorophenoxy]-N-methylpyridine-2-carboxamide [rebastinib]
acute liver failure: liver bleeding and inflammation (gross liver morphology) ([1]; 5 hr): attenuated | acute liver failure: liver bleeding and inflammation (gross liver morphology) ([1]; 5 hr, listed as present compound): significant attenuation | liver tissue weight ([1]; rebastinib 5 or 10 mg/kg i.v. 1 hr before LPS/D-GalN i.p., 5 hr): decreases | serum ALT level [1, 9]: decreased significantly | serum AST level [1, 9]: decreased significantly | serum CRE level [1, 9]: decreased significantly | serum LDH level [1, 9]: decreased significantly | serum biochemical parameters (AST, ALT, BUN, CRE, LDH) ([1]; rebastinib 5 or 10 mg/kg i.v., LPS/D-GalN i.p. 5 hr, clinical chemistry analyzer): attenuated | MSU-induced IL-1β secretion (LPS-primed d-THP-1 cells [2]): inhibited | MSU-induced IL-1β secretion (LPS-primed d-THP-1 cells [2]; listed as present compound): suppressed | nigericin-induced pyroptotic cell death (swelling, bubbles, lysis) (LPS-primed d-THP-1 cells [3]): inhibited | nigericin-induced pyroptotic cell death (swelling, bubbles, lysis) (LPS-primed d-THP-1 cells [3]; listed as present compound): significantly reduced | imiquimod-induced IL-1β secretion (LPS-primed d-THP-1 cells [4]): inhibited | imiquimod-induced IL-1β secretion (LPS-primed d-THP-1 cells [4]; listed as present compound): suppressed | nigericin-induced ASC speck formation (LPS-primed d-THP-1 cells [5]): inhibited | nigericin-induced ASC speck formation (LPS-primed d-THP-1 cells [5]; listed as present compound): greatly reduced | nigericin-induced IL-1β secretion (LPS-primed d-THP-1 cells [6]): inhibited | nigericin-induced IL-1β secretion (LPS-primed d-THP-1 cells [6]; listed as present compound): significantly reduced | LPS-induced lung morphology change and infiltration (H&E) (LPS-induced ALI in mice): significantly attenuated | LPS-induced lung morphology change and infiltration (H&E) (LPS-induced ALI in mice; listed as Rebastinib): attenuated | nigericin-induced pyroptotic LDH release (LPS-primed d-THP-1 cells [7]): inhibited | nigericin-induced pyroptotic LDH release (LPS-primed d-THP-1 cells [7]; listed as present compound): inhibitory effect | nigericin-induced IL-18 secretion (LPS-primed d-THP-1 cells [8]): inhibited | nigericin-induced IL-18 secretion (LPS-primed d-THP-1 cells [8]; listed as present compound): significantly reduced

COc1ccc(Cl)cc1C(=O)NCCc1ccc(S(=O)(=O)NC(=O)NC2CCCCC2)cc1 [glibenclamide]
nigericin-induced pyroptotic cell death (swelling, bubbles, lysis) (LPS-primed d-THP-1 cells [3]): significantly reduced | nigericin-induced ASC speck formation (LPS-primed d-THP-1 cells [5]): greatly reduced
